Data: patent US8614223B2, “Pyrimidine hydroxy amide compounds as protein deacetylase inhibitors and methods of use thereof” (Acetylon Pharmaceuticals, Inc., priority 2010, dated 2013)

Columns and labels:
HDAC6 = HDAC6 (Homo sapiens (Human), UniProt Q9UBN7); settings: read-out: HDAC6 IC50
HDAC2 = HDAC2 (Homo sapiens (Human), UniProt Q92769); test: HDAC enzyme assay, HDAC2; settings: for HDAC2 fold over HDAC6 IC50 (selectivity for HDAC6): ratio HDAC2/HDAC6; for IC50: read-out: HDAC2 IC50
HDAC1 = HDAC1 (Homo sapiens (Human), UniProt Q13547); test: HDAC enzyme assay, HDAC1; settings: for HDAC1 fold over HDAC6 IC50 (selectivity for HDAC6): ratio HDAC1/HDAC6; for IC50: read-out: HDAC1 IC50
HDAC3 = HDAC3 (Homo sapiens (Human), UniProt O15379); test: HDAC enzyme assay, HDAC3; settings: for HDAC3 fold over HDAC6 IC50 (selectivity for HDAC6): ratio HDAC3/HDAC6; for IC50: read-out: HDAC3 IC50
Chain of HDAC3 (O15379 whole entry): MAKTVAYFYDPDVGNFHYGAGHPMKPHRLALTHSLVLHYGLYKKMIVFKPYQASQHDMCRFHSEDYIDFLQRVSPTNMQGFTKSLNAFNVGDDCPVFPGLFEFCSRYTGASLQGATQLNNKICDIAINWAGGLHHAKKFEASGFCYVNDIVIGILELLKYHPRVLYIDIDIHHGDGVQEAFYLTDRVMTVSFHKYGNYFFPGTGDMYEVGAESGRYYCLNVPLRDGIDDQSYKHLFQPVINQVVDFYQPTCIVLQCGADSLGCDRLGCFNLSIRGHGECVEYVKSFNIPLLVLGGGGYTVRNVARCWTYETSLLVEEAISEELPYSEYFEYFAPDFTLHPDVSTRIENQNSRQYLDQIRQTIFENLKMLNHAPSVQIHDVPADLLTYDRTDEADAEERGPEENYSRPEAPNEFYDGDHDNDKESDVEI
Chain of HDAC3 (Q9Y618 395-489 partner): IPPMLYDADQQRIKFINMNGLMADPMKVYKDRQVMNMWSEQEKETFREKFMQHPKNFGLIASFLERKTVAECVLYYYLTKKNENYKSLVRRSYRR

Chain of HDAC2 (Q92769 whole entry): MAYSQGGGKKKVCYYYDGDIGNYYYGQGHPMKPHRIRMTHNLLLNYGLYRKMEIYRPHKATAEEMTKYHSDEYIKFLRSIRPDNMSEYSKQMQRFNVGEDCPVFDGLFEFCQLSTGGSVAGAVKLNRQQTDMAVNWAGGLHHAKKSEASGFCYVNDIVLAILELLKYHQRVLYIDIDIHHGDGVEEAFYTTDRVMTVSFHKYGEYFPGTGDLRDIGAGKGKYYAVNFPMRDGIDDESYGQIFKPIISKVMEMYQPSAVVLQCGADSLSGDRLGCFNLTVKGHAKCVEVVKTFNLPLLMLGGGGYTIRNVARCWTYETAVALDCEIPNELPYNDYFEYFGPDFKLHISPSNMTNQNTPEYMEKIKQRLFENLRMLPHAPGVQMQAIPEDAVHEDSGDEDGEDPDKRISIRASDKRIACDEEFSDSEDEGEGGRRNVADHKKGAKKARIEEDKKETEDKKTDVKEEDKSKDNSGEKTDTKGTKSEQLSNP
Chain of HDAC1 (Q13547 whole entry): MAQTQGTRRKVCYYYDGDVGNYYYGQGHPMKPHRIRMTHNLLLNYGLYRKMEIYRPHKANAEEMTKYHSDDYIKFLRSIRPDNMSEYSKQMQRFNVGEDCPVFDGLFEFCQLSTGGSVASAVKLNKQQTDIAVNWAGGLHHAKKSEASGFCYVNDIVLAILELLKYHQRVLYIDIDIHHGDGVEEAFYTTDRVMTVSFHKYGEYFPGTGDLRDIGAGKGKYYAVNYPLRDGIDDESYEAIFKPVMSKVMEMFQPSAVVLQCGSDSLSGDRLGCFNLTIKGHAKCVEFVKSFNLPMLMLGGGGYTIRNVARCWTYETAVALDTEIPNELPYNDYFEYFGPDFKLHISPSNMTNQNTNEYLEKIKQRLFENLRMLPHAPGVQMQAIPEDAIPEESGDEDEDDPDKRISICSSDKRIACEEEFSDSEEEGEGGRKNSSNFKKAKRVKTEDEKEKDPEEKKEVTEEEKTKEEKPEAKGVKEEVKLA
Chain of HDAC6 (Q9UBN7 whole entry): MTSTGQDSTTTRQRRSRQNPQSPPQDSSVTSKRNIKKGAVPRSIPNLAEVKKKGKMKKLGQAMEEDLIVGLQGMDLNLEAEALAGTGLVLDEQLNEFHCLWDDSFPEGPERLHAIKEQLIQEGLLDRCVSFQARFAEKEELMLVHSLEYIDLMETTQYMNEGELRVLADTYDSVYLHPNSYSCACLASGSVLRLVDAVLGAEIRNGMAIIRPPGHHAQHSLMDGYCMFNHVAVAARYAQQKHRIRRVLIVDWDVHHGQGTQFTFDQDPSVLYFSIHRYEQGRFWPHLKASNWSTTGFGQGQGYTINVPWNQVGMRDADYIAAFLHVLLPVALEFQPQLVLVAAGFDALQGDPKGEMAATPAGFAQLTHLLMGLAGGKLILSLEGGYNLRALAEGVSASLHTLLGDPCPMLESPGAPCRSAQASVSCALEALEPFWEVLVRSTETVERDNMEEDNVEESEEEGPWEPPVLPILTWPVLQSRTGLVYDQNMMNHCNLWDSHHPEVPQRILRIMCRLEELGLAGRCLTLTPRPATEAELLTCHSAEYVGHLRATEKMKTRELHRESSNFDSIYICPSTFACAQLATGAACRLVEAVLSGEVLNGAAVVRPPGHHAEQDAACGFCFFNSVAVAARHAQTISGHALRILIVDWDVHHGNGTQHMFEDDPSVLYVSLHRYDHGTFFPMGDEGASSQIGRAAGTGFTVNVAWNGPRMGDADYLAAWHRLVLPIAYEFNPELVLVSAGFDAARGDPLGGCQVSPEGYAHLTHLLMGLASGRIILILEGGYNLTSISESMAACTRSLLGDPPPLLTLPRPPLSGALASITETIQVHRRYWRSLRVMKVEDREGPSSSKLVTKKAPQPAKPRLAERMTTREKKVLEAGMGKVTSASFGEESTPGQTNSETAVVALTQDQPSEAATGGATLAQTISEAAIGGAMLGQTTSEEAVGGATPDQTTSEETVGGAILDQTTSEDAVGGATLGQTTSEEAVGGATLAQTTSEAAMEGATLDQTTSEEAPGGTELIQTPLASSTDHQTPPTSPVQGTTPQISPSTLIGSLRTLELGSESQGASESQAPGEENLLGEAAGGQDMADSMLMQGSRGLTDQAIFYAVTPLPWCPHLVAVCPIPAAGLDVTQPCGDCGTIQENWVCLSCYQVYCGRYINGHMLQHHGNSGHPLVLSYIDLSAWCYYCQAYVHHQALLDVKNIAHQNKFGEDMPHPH

| IC50 (HDAC6) | HDAC2 fold over HDAC6 IC50 (selectivity for HDAC6) (HDAC2) | IC50 (HDAC2) | HDAC1 fold over HDAC6 IC50 (selectivity for HDAC6) (HDAC1) | IC50 (HDAC1) | HDAC3 fold over HDAC6 IC50 (selectivity for HDAC6) (HDAC3) | IC50 (HDAC3) | Compound |
| --- | --- | --- | --- | --- | --- | --- | --- |
| 5 nM | (68.3x) | 345 nM | (31.4x) | 159 nM | (53.4x) | 270 nM | O=C(NO)c1cnc(Nc2cc(F)cc(C(F)(F)F)c2)nc1 [Compound 26] |
| 7 nM | (106.6x) | 700 nM | (63.5x) | 417 nM | (113.5x) | 745 nM | O=C(NO)c1cnc(Nc2cc(Cl)cc(OC(F)(F)F)c2)nc1 [Compound 27] |
| 4 nM | (51.5x) | 187 nM | (30.7x) | 111 nM | (50.1x) | 181 nM | O=C(NO)c1cnc(Nc2cccc(-c3ccccc3)c2)nc1 [Compound 28] |
| 8 nM | (106x) | 808 nM | (60.9x) | 464 nM | (68.2x) | 520 nM | O=C(NO)c1cnc(Nc2cccc(N3CCOCC3)c2)nc1 [Compound 29] |
| 3 nM | (56.5x) | 181 nM | (27.5x) | 88 nM | (44.1x) | 141 nM | O=C(NO)c1cnc(Nc2cccc(-c3ccncc3)c2)nc1 [Compound 30] |
| 10 nM | (34.7x) | 362 nM | (19.8x) | 206 nM | (21.1x) | 221 nM | Cc1cc(Nc2ncc(C(=O)NO)cn2)ccn1 [Compound 31] |
| 2 nM | (116.2x) | 226 nM | (56.4x) | 110 nM | (86.7x) | 169 nM | O=C(NO)c1cnc(NCc2ccccc2Cl)nc1 [Compound 33] |
| 1 nM | (21.5x) | 28 nM | (15.5x) | 20 nM | (25.7x) | 34 nM | O=C(NO)c1cnc(NCc2cccc(Cl)c2)nc1 [Compound 34] |
| 2 nM | (76.2x) | 140 nM | (42.3x) | 77 nM | (70x) | 128 nM | O=C(NO)c1cnc(NCc2ccccc2)nc1 [Compound 35] |
| 2 nM | (31.2x) | 71 nM | (17.5x) | 40 nM | (33x) | 75 nM | O=C(NO)c1cnc(NCc2ccc(Cl)cc2)nc1 [Compound 36] |
| 5 nM | (25.4x) | 127 nM | (17.8x) | 89 nM | (29.8x) | 149 nM | O=C(NO)c1cnc(NCc2ccc(C(F)(F)F)cc2)nc1 [Compound 37] |
| 7 nM | (103.5x) | 720 nM | (67.5x) | 470 nM | (128.1x) | 891 nM | O=C(NO)c1cnc(NCc2ccccc2C(F)(F)F)nc1 [Compound 38] |
| 4 nM | (92.2x) | 387 nM | (62.6x) | 263 nM | (117.9x) | 495 nM | O=C(NO)c1cnc(NCCc2ccccc2Cl)nc1 [Compound 39] |
| 2 nM | (28.7x) | 56 nM | (19.8x) | 38 nM | (36.2x) | 70 nM | O=C(NO)c1cnc(NCc2cccc(C(F)(F)F)c2)nc1 [Compound 40] |
| 4 nM | (24.1x) | 97 nM | (19.5x) | 78 nM | (32.3x) | 130 nM | O=C(NO)c1cnc(NCCc2cccc(Cl)c2)nc1 [Compound 42] |
| 4 nM | (30.3x) | 120 nM | (22.8x) | 90 nM | (27.1x) | 107 nM | O=C(NO)c1cnc(NCCc2c[nH]c3ccccc23)nc1 [Compound 43] |
| 4 nM | (148.5x) | 523 nM | (106.9x) | 377 nM | (143.4x) | 506 nM | COc1ccccc1CNc1ncc(C(=O)NO)cn1 [Compound 45] |
| 4 nM | (86.7x) | 346 nM | (55.8x) | 223 nM | (75.1x) | 300 nM | O=C(NO)c1cnc(NCc2ccccc2OC(F)(F)F)nc1 [Compound 47] |
| 7 nM | (80.8x) | 601 nM | (48.8x) | 363 nM | (53.9x) | 401 nM | O=C(NO)c1cnc(NCc2c(Cl)cccc2Cl)nc1 [Compound 48] |
| 4 nM | (374.6x) | 1520 nM | (288.1x) | 1170 nM | (547.1x) | 2210 nM | CC(C)(Nc1ncc(C(=O)NO)cn1)c1ccccc1 [Compound 50] |
| 11 nM | (55x) | 624 nM | (41.2x) | 468 nM | (33.6x) | 382 nM | O=C(NO)c1cnc(NCc2c(CO)cccc2CO)nc1 [Compound 51] |
| 2 nM | (19.2x) | 30 nM | (14.9x) | 24 nM | (27.2x) | 43 nM | O=C(NO)c1cnc(NCc2ccc(F)c(Cl)c2)nc1 [Compound 53] |
| 21 nM | (98.9x) | 2100 nM | (64.4x) | 1370 nM | (73.7x) | 1570 nM | Cc1cccc(C)c1CNc1ncc(C(=O)NO)cn1 [Compound 54] |
| 8 nM | (76.8x) | 587 nM | (60.2x) | 460 nM | (82.6x) | 631 nM | O=C(NO)c1cnc(NCc2ccccc2-c2ccccc2)nc1 [Compound 55] |
| 6 nM | (116.6x) | 713 nM | (86x) | 526 nM | (147.4x) | 901 nM | O=C(NO)c1cnc(NCc2ccc(F)cc2C(F)(F)F)nc1 [Compound 57] |
| 9 nM | (77.2x) | 701 nM | (60.8x) | 552 nM | (119.5x) | 1080 nM | O=C(NO)c1cnc(NC23CC4CC(CC(C4)C2)C3)nc1 [Compound 58] |
| 40 nM | (20.5x) | 815 nM | (15.3x) | 607 nM | (22x) | 873 nM | O=C(NO)c1cnc(NCCc2ccccc2-c2ccccc2)nc1 [Compound 59] |
| 2 nM | (58.9x) | 142 nM | (53.5x) | 129 nM | (98.1x) | 237 nM | O=C(NO)c1cnc(NC(c2ccccc2)c2ccccc2)nc1 [Compound 60] |
| 19 nM | (96.5x) | 1800 nM | (77.6x) | 1440 nM | (93.7x) | 1750 nM | O=C(NO)c1cnc(NCCc2c(Cl)cccc2Cl)nc1 [Compound 63] |
| 3 nM | (362.4x) | 1080 nM | (254.8x) | 761 nM | (495.3x) | 1480 nM | CC(C)(Nc1ncc(C(=O)NO)cn1)c1ccc(F)cc1 [Compound 68] |
